Ki and IC50 data for 37 compounds are collected here from patent US9868748B2, “Thiazolopyrrolidine inhibitors of ROR- γ” (Vitae Pharmaceuticals, Inc., priority 2013, dated 2018).

The target in experiment [1] is recombinant RORγ Ligand Binding Domain (LBD) protein (Homo sapiens (Human), UniProt P51449). Put plainly: Radio-Ligand RORγ Binding Assay (Assay 1). Particulars: competition with 25-hydroxy [26,27-3H]-cholesterol, SPA, read-out: RORγ Binding Ki Range*. The procedure, abridged:
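Recombinant human RORγ ligand binding domain (6×His-GST fusion, 24 nM stock) competed with tritiated 25-hydroxycholesterol (8.6 nM stock) in HEPES buffer pH 7.4 with detergents and DTT; poly-Lys YSi SPA beads, room temperature, tritium SPA signal. Four-parameter IC50 from semi-log dilutions, normalised to DMSO and 10 μM T0901317, then Ki via KD equation.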

Experiment [2] concerns the target full-length RORγt in Jurkat cells (Homo sapiens (Human), UniProt P51449). Put plainly: RORγt 5xRORE Assay in Jurkat Cells (Assay 2). The format is cell-based. The following applies: Nanoluc luciferase reporter, 16-18 hrs. The procedure: [formula] RORγt 5xRORE Assay in Jurkat Cells (Assay 2)
Compounds of the present invention were tested for RORγ inverse agonist activity in a cell-based, transcriptional activity assay. Secreted Nanoluc® luciferase was used as a reporter for transcriptional activity of the full-length RORγt in Jurkat cells (ATCC, Cat. # TIB-152). A reporter plasmid was constructed by inserting 5 repeats of the ROR Response Element (RORE) […] (SEQ ID NO:1) into a commercially available promoterless plasmid pNL1.3[secNluc] (Promega, Cat. # N1021) using KpnI and HindIII restriction sites. The expression plasmid for RORγt was purchased (Geneocopoeia, Cat. # EX-T6988-M02). Jurkat cells (30 million cells) were transfected with 11 μg of EX-T6988-MO2 and 26 μg of the reporter plasmid in OptiMEM® media using Lipofectamine® LTX and Plus™ reagents (Life Technologies, Cat. #15338-100). After 5-6 h of incubation at 37° C./5% CO2, the cells were collected, resuspended in phenol-red free RPMI media containing 10% (v/v) delipidated FBS (Hyclone, Cat. # SH30855.03) and dispensed into 96-well clear bottom tissue culture plates (CoStar, Cat. #3603), at 80,000 cells per well. Tested compounds were added to the cells in the same media (final concentration of DMSO was 0.1% (v/v)), and the plates were incubated at 37° C./5% CO2 for 16-18 hrs. Luciferase activity in the conditioned supernatants was determined with NanoGlo® assay reagents (Promega, Cat. # N1130).
A general note: A reporter such as luciferase makes a cellular process visible.

Setting [3] is: Table 9, read-out: RORγt5X IC50 Range*.
Where [4] appears, read: Table 8, read-out: RORγt5X IC50 Range*.

Read-outs that look alike come from different tables or passages of the source.

Chain of full-length RORγt in Jurkat cells (P51449 other isoform, or with tags, fused parts or gaps): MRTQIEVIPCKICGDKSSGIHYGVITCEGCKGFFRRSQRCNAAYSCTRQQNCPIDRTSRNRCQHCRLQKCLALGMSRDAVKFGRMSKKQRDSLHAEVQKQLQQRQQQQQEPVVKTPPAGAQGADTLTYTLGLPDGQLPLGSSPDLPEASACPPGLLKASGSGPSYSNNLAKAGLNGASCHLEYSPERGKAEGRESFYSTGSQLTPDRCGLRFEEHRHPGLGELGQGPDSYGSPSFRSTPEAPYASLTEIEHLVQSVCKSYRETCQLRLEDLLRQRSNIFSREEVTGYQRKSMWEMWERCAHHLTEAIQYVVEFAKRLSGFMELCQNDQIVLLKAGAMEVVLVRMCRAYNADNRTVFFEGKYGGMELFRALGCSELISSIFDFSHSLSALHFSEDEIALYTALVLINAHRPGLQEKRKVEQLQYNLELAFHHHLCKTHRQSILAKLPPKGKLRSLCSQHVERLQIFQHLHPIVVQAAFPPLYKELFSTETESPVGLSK
Chain of recombinant RORγ Ligand Binding Domain (LBD) protein (P51449 269-508): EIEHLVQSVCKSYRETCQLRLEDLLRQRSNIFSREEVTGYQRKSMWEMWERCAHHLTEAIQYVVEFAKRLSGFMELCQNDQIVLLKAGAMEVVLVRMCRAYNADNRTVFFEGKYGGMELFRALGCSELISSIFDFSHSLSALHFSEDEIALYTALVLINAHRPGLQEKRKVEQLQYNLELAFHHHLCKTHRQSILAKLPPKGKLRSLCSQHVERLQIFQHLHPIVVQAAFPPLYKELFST

For `CCS(=O)(=O)c1ccc(CC(=O)Nc2nc3c(s2)CN([C@@H](C)Cc2ccc(Cl)cc2)[C@H]3C(C)C)cc1`, the Ki in experiment [1] (Table 9) is less than 100 nM. Moreover, the IC50 in experiment [2] (setting [3]) lay in the range of 100 to 1000 nM.
For `CCS(=O)(=O)c1ccc(CC(=O)Nc2nc3c(s2)CN(Cc2ccc(=O)n(C4CC4)c2)[C@H]3C(C)C)cc1` the same measures were less than 100 nM and 100 to 1000 nM.
For `CCS(=O)(=O)c1ccc(CC(=O)Nc2nc3c(s2)CN(C[C@H]2CC[C@@H](C(F)(F)F)O2)[C@H]3C(C)C)nc1` (single isomer, unassigned) the same measures were less than 100 nM and more than 1000 nM.
On the same counts, the results for `CCS(=O)(=O)c1ccc(CC(=O)Nc2nc3c(s2)CN(Cc2ccc(F)cc2)[C@@H]3C(C)C)cc1` are less than 100 nM and more than 1000 nM.
For the compound `Cc1nc(C(F)(F)F)ccc1CN1Cc2sc(NC(=O)Cc3ccc(S(C)(=O)=O)cc3F)nc2[C@@H]1C(C)C`, the inhibitory constant (Ki) in experiment [1] (Table 9) was less than 100 nM. The 50% inhibitory concentration (IC50) in experiment [2] (setting [3]) was less than 100 nM.
As for `CC(C)[C@H]1c2nc(NC(=O)Cc3ccc(S(C)(=O)=O)cc3)sc2CN1[C@@H](C)c1ccc(C#N)cc1` [I-B15], the inhibition constant (Ki) in experiment [1] (Table 8) is less than 100 nM. Further, in experiment [2] (setting [4]), the concentration for half-maximal inhibition (IC50) is less than 100 nM.
For the compound `CCS(=O)(=O)c1ccc(CC(=O)Nc2nc3c(s2)CN(Cc2ccc(=O)n(C)c2)[C@H]3C(C)C)cc1`, the inhibition constant (Ki) in experiment [1] (Table 9) is less than 100 nM. Besides, the IC50 in experiment [2] (setting [3]) was in the range of 100 to 1000 nM.
On to `CCS(=O)(=O)c1ccc(CC(=O)Nc2nc3c(s2)CN(Cc2ccc(F)cc2)[C@H]3C(C)C)cc1` [I-A14], for which the Ki in experiment [1] (Table 8) was less than 100 nM. Besides, the IC50 in experiment [2] (setting [4]) is more than 1000 nM.
`CCS(=O)(=O)c1ccc(CC(=O)Nc2nc3c(s2)CN(Cc2ccc(C#N)c(F)c2)[C@H]3C(C)C)cc1` [I-A4]: the inhibition constant Ki in experiment [1] (Table 8) is less than 100 nM. Moreover, the IC50 in experiment [2] (setting [4]) is less than 100 nM.
In the case of `CCS(=O)(=O)c1ccc(CC(=O)Nc2nc3c(s2)CN(C[C@@H]2CC[C@H](C(F)(F)F)OC2)[C@H]3C(C)C)cc1` (relative stereo), the Ki in experiment [1] (Table 9) was less than 100 nM. The 50% inhibitory concentration (IC50) in experiment [2] (setting [3]) is more than 1000 nM.
Consider `CCS(=O)(=O)c1ccc(CC(=O)Nc2nc3c(s2)CN([C@H](C)c2ccc(Cl)cc2F)[C@H]3C(C)C)cc1` [I-A38], for which, in experiment [1] (Table 8), the inhibitory constant (Ki) was less than 100 nM. Further, the IC50 in experiment [2] (setting [4]) was less than 100 nM.
For `CC(C)[C@H]1c2nc(NC(=O)Cc3ccc(S(C)(=O)=O)cc3)sc2CN1Cc1ccc(C#N)cc1Cl` [I-B16], the inhibitory constant (Ki) in experiment [1] (Table 8) was less than 100 nM. Further, the concentration for half-maximal inhibition (IC50) in experiment [2] (setting [4]) was less than 100 nM.
Take `CCS(=O)(=O)c1ccc(CC(=O)Nc2nc3c(s2)CN(Cc2ccc(C(=O)OC)cc2)[C@H]3C(C)C)cc1` [I-A60]: the Ki in experiment [1] (Table 8) is less than 100 nM. Also, in experiment [2] (setting [4]), the IC50 was less than 100 nM.
Take `Cc1nnc(-c2ccc(CN3Cc4sc(NC(=O)Cc5ccc(S(C)(=O)=O)cc5)nc4[C@@H]3C(C)C)cc2)o1`: the Ki in experiment [1] (Table 9) was less than 100 nM. In addition, the IC50 in experiment [2] (setting [3]) is less than 100 nM.
Consider `CCS(=O)(=O)c1ccc(CNC(=O)c2nc3c(s2)CN(CC2CN(C(=O)OC(C)(C)C)CCO2)[C@H]3C(C)C)cc1` (some centres unmarked), for which the Ki in experiment [1] (Table 9) was less than 100 nM. In addition, the 50% inhibitory concentration (IC50) in experiment [2] (setting [3]) is less than 100 nM.
Take `CCS(=O)(=O)c1ccc(CC(=O)Nc2nc3c(s2)CN(Cc2ccc(C(F)(F)F)nn2)[C@H]3C(C)C)cc1`: in experiment [1] (Table 9), the inhibition constant (Ki) is less than 100 nM. In addition, the concentration for half-maximal inhibition (IC50) in experiment [2] (setting [3]) was less than 100 nM.
On to `CC(C)[C@H]1c2nc(C(=O)NCc3ccc(S(C)(=O)=O)cc3)sc2CN1Cc1ccc(C#N)cc1F`, for which the inhibitory constant (Ki) in experiment [1] (Table 9) is less than 100 nM. Moreover, in experiment [2] (setting [3]), the IC50 was 100 to 1000 nM.
On to `CCS(=O)(=O)c1ccc(CC(=O)Nc2nc3c(s2)CN(C[C@@H]2CC[C@H](C(F)(F)F)O2)[C@H]3C(C)C)nc1` (single isomer, unassigned), for which the Ki in experiment [1] (Table 9) was less than 100 nM. For the same compound, the 50% inhibitory concentration (IC50) in experiment [2] (setting [3]) is more than 1000 nM.
With `CCS(=O)(=O)c1ccc(CC(=O)Nc2nc3c(s2)CN([C@H]2COc4cc(Cl)ccc42)[C@H]3C(C)C)cc1` (relative stereo), the inhibition constant Ki in experiment [1] (Table 9) is less than 100 nM. Besides, the concentration for half-maximal inhibition (IC50) in experiment [2] (setting [3]) is less than 100 nM.
Regarding `Cc1cc(CN2Cc3sc(NC(=O)Cc4ccc(S(C)(=O)=O)cc4)nc3[C@@H]2C(C)C)ccc1C#N` [I-B7], the inhibitory constant (Ki) in experiment [1] (Table 8) is less than 100 nM. The half-inhibitory concentration (IC50) in experiment [2] (setting [4]) is less than 100 nM.
With `CCS(=O)(=O)c1ccc(CC(=O)Nc2nc3c(s2)CN(Cc2ccc(OC(F)F)cc2)[C@@H]3C(C)C)cc1`, in experiment [1] (Table 9), the Ki is less than 100 nM. In addition, the IC50 in experiment [2] (setting [3]) is more than 1000 nM.
On the same counts, the results for `CCS(=O)(=O)c1ccc(CC(=O)Nc2nc3c(s2)CN(C[C@@H]2CC[C@H](C(F)(F)F)NC2)[C@H]3C(C)C)cc1` (single isomer, unassigned) are less than 100 nM and more than 1000 nM.
For `CCS(=O)(=O)c1ccc(CC(=O)Nc2nc3c(s2)CN(C[C@H]2CCCOC2)[C@H]3C(C)C)cc1` (single isomer, unassigned) the same measures were less than 100 nM and more than 1000 nM.
In the case of `CC(C)[C@H]1c2nc(NC(=O)Cc3ccc(S(=O)(=O)NC4CC4)cc3)sc2CN1Cc1ccc(Cl)cc1` [I-G1, (S)—N-(5-(4-chlorobenzyl)-4-isopropyl-5,6-dihydro-4H-pyrrolo[3,4-d]thiazol-2-yl)-2-(4-(N-cyclopropylsulfamoyl)phenyl)acetamide], the inhibitory constant (Ki) in experiment [1] (Table 8) was less than 100 nM. In addition, the 50% inhibitory concentration (IC50) in experiment [2] (setting [4]) was less than 100 nM.
Take `CCS(=O)(=O)c1ccc(CC(=O)Nc2nc3c(s2)CN(C[C@@H]2CC[C@@H](C(F)(F)F)OC2)[C@H]3C(C)C)cc1` [I-A26]: in experiment [1] (Table 8), the Ki was less than 100 nM. Further, in experiment [2] (setting [4]), the IC50 was less than 100 nM.
In the case of `CCS(=O)(=O)c1ccc(CC(=O)Nc2nc3c(s2)CN(Cc2cccc(F)c2)[C@@H]3C(C)C)cc1`, the Ki in experiment [1] (Table 9) was less than 100 nM. Also, the half-maximal inhibitory concentration (IC50) in experiment [2] (setting [3]) was more than 1000 nM.
On the same counts, the results for `CCS(=O)(=O)c1ccc(CNC(=O)c2nc3c(s2)CN(Cc2ccc(C(F)F)cc2)[C@H]3C(C)C)nc1` are less than 100 nM and less than 100 nM.
On the same counts, the results for `CCS(=O)(=O)c1ccc(CC(=O)Nc2nc3c(s2)CN([C@H](C)Cc2ccccc2)[C@H]3C(C)C)cc1` are less than 100 nM and more than 1000 nM.
Turning to `CC(C)[C@H]1c2nc(NC(=O)Cc3ccc(S(C)(=O)=O)cc3)sc2CN1Cc1ccc(-c2nnn(C)n2)cc1` [I-B9], the Ki in experiment [1] (Table 8) was less than 100 nM. In addition, the half-inhibitory concentration (IC50) in experiment [2] (setting [4]) is less than 100 nM.
On to `CC(C)[C@H]1c2nc(NC(=O)Cc3ccc(S(C)(=O)=O)cc3)sc2CN1[C@H](C)c1ccc(C#N)cc1` [I-B14], for which the Ki in experiment [1] (Table 8) is less than 100 nM. Moreover, the IC50 in experiment [2] (setting [4]) is less than 100 nM.
Regarding `Cc1cc(C(F)(F)F)nc(N2Cc3sc(NC(=O)Cc4ccc(S(C)(=O)=O)cc4)nc3[C@H]2C(C)C)n1`, in experiment [1] (Table 9), the Ki was 100 to 1000 nM. Besides, in experiment [2] (setting [3]), the concentration for half-maximal inhibition (IC50) is more than 1000 nM.
Regarding `CCS(=O)(=O)c1ccc(CNC(=O)c2nc3c(s2)CN(C[C@H]2CC[C@@H](C(F)(F)F)CC2)[C@H]3C(C)C)cc1` (relative stereo), the inhibitory constant (Ki) in experiment [1] (Table 9) is less than 100 nM. Besides, the concentration for half-maximal inhibition (IC50) in experiment [2] (setting [3]) was more than 1000 nM.
On the same counts, the results for `CCS(=O)(=O)c1ccc(CC(=O)Nc2nc3c(s2)CN(C2CCC(C(F)(F)F)CC2)[C@H]3C(C)C)cc1` (some centres unmarked) are less than 100 nM and 100 to 1000 nM.
On the same counts, the results for `CC(C)Oc1ccc(CC(=O)Nc2nc3c(s2)CN(Cc2ccc(Cl)cc2)[C@H]3C(C)C)cc1` are 100 to 1000 nM and more than 1000 nM.
As for `CCS(=O)(=O)c1ccc(CC(=O)Nc2nc3c(s2)CN(CCc2ccccc2)[C@@H]3C(C)C)cc1`, the Ki in experiment [1] (Table 9) was less than 100 nM. Also, the IC50 in experiment [2] (setting [3]) is more than 1000 nM.
Turning to `CC[C@H]1c2nc(NC(=O)Cc3ccc(CO)cc3)sc2CN1Cc1ccc(Cl)cc1`, the inhibitory constant (Ki) in experiment [1] (Table 9) was less than 100 nM. In addition, the half-maximal inhibitory concentration (IC50) in experiment [2] (setting [3]) fell in the range of 100 to 1000 nM.
As for `CCS(=O)(=O)c1ccc(CC(=O)Nc2nc3c(s2)CN(C[C@H]2CC[C@H](OC(F)F)CC2)[C@H]3C(C)C)cc1` [I-A28], the Ki in experiment [1] (Table 8) is less than 100 nM. Further, the IC50 in experiment [2] (setting [4]) is less than 100 nM.

Usually Ki stands for a dissociation constant, usually derived from enzyme kinetics or from competition with a known ligand. A word on the IC50: it is the concentration needed to halve the response being measured.
